In ChEMBL document CHEMBL4811261, “Synthesis and biological evaluation of novel benzo[a]pyridazino[3,4-c]phenazine derivatives” (Bioorg Med Chem Lett, 2021):

Experiments:
[1] = test system: KB; assay: Cytotoxicity against human KB cells assessed as cell viability measured by MTT assay; format: functional, cell-based
[2] = test system: HepG2; assay: Cytotoxicity against human HepG2 cells assessed as cell viability measured by MTT assay; format: functional, cell-based
[3] = Cytotoxicity against human Lu1 cells assessed as cell viability measured by MTT assay; format: functional, cell-based
[4] = test system: MCF7; assay: Cytotoxicity against human MCF7 cells assessed as cell viability measured by MTT assay; format: functional, cell-based
[5] = test system: HEK293; assay: Cytotoxicity against human HEK293 cells assessed as cell viability measured by MTT assay; format: cell-based
[6] = test system: Staphylococcus aureus; assay: Antibacterial activity against Staphylococcus aureus measured by broth microdilution method; format: functional, organism-based
[7] = test system: Bacillus subtilis; assay: Antibacterial activity against Bacillus subtilis measured by broth microdilution method; format: functional, organism-based
[8] = test system: Limosilactobacillus fermentum; assay: Antibacterial activity against Lactobacillus fermentum measured by broth microdilution method; format: functional, organism-based
[9] = test system: Escherichia; assay: Antibacterial activity against Escherichia measured by broth microdilution method; format: functional, organism-based
[10] = test system: Pseudomonas aeruginosa; assay: Antibacterial activity against Pseudomonas aeruginosa measured by broth microdilution method; format: functional, organism-based
[11] = test system: Salmonella enterica; assay: Antibacterial activity against Salmonella enterica measured by broth microdilution method; format: functional, organism-based
[12] = test system: Candida albicans; assay: Antifungal activity against Candida albicans measured by broth microdilution method; format: functional, organism-based

Structure (SMILES) | IC50 [1] [µM] | IC50 [2] [µM] | IC50 [3] [µM] | IC50 [4] [µM] | IC50 [5] [µM] | IC50 [6] [µM] | IC50 [7] [µM] | IC50 [8] [µM] | IC50 [9] [µM] | IC50 [10] [µM] | IC50 [11] [µM] | IC50 [12] [µM]
COc1cccc(C2=NN(C)c3c(c4nc5ccccc5nc4c4ccccc34)C2c2cccc(OC)c2)c1 (stereo not given) | 64.4 | 36.3 | 56 | 70.7 | > 100 | > 100 | 90.8 | > 100 | > 100 | > 100 | > 100 | > 100
CN1N=C(c2cccc(Br)c2)C(c2cccc(Br)c2)c2c1c1ccccc1c1nc3ccccc3nc21 (stereo not given) | > 100 | > 100 | > 100 | > 100 | > 100 | 84.4 | 84.6 | > 100 | > 100 | > 100 | > 100 | > 100
CN1N=C(c2ccc3ccccc3c2)C(c2ccc3ccccc3c2)c2c1c1ccccc1c1nc3ccccc3nc21 (stereo not given) | > 100 | 81.4 | > 100 | > 100 | > 100 | > 100 | > 100 | > 100 | > 100 | > 100 | > 100 | > 100
CN1N=C(c2ccc(S(C)(=O)=O)cc2)C(c2ccc(S(C)(=O)=O)cc2)c2c1c1ccccc1c1nc3ccccc3nc21 (stereo not given) | 62.5 | 44.7 | > 100 | 62.7 | > 100 | > 100 | > 100 | > 100 | > 100 | > 100 | > 100 | > 100
CN1N=C(c2ccc([N+](=O)O)cc2)C(c2ccc([N+](=O)[O-])cc2)c2c1c1ccccc1c1nc3ccccc3nc21 (stereo not given) | > 100 | > 100 | > 100 | > 100 | > 100 | > 100 | 77.9 | > 100 | > 100 | > 100 | > 100 | > 100
CN1N=C(c2ccc(Cl)cc2)C(c2ccc(Cl)cc2)c2c1c1ccccc1c1nc3ccccc3nc21 (stereo not given) | > 100 | > 100 | > 100 | > 100 | > 100 | > 100 | > 100 | > 100 | > 100 | > 100 | > 100 | > 100
CN1N=C(c2ccc(Br)cc2)C(c2ccc(Br)cc2)c2c1c1ccccc1c1nc3ccccc3nc21 (stereo not given) | > 100 | > 100 | > 100 | > 100 | > 100 | 4.21 | 5.91 | > 100 | > 100 | > 100 | > 100 | > 100
COc1ccc(C2=NN(C)c3c(c4nc5ccccc5nc4c4ccccc34)C2c2ccc(OC)cc2)cc1 (stereo not given) | 16.7 | 14.6 | 18.2 | 21.8 | 73.4 | > 100 | > 100 | > 100 | > 100 | > 100 | > 100 | > 100
CN1N=C(c2ccccc2)C(c2ccccc2)c2c1c1ccccc1c1nc3ccccc3nc21 (stereo not given) | 19.4 | 10.5 | 18.6 | 22 | > 100 | > 100 | > 100 | > 100 | > 100 | > 100 | > 100 | > 100
CC1(C)S[C@@H]2[C@H](NC(=O)[C@H](N)c3ccccc3)C(=O)N2[C@H]1C(=O)O [AMPICILLIN] | – | – | – | – | – | 0.02 | 0.3 | – | – | – | – | –
Cc1c2ccncc2c(C)c2c1[nH]c1ccccc12 [ELLIPTECINE] | 1.26 | 1.34 | 1.83 | 2.48 | 6.58 | – | – | – | – | – | – | –
